The test system of experiment [1] is HT-29 cell line. As to the kind of experiment: Cell cytotoxicity, MTT assay. It counts as cell-based, human. The conditions noted are these: Homo sapiens, HT-29; MTT, 24 h. (In general: Tetrazolium assays rely on reduction of a dye to a coloured formazan, in cell work by metabolically active cells.)
For experiment [2], the system named is HEK293T cell line. Kind of experiment: Cell cytotoxicity, MTT assay. It counts as cell-based. The conditions noted are these: Homo sapiens, HEK-293T, 24 h, healthy cell line.
Experiment [3] has as its system PC-3 cell line. As to the kind of experiment: Cell cytotoxicity, MTT assay. The format is cell-based. The conditions noted are these: Homo sapiens, 24 h.
Experiment [4] concerns MCF-7 cell line. Kind of experiment: Cell cytotoxicity, MTT assay. It counts as cell-based, human. The conditions noted are these: Homo sapiens, MCF7, 24 h.
Experiment [5] concerns the target hCA IX (Homo sapiens, UniProt Q16790). Kind of experiment: biochemical.

Some results are limits rather than exact numbers.

In the case of `Cc1ccc(C(C)C)cc1OCCCCCCCOc1ccc2ccc(=O)oc2c1` [Compound 56, 7-((7-(5-Isopropyl-2-methylphenoxy)heptyl)oxy)-2H-chromen-2-one], the IC50 in experiment [1] was greater than 80 µM; in experiment [2], greater than 80 µM; in experiment [3] it was 24.4 ± 4.12 µM; in experiment [4] it was 8.26 ± 1.28 µM.

Take `CC1CCC(C(C)C)C(OCc2cn(CCCCCCCCCCOc3ccc4ccc(=O)oc4c3)nn2)C1` (centres unmarked) [Compound 42, 7-((10-(4-(((2-Isopropyl-5-methylcyclohexyl)oxy)methyl)-1H-1,2,3-triazol-1-yl)decyl)oxy)-2H-chromen-2-one]: the IC50 in experiment [1] was 32.9 ± 8.54 µM; in experiment [2] it was 83.2 ± 28.1 µM; in experiment [3] it was 39.7 ± 17 µM; in experiment [4], greater than 200 µM. In experiment [5], this compound displayed a Ki of 0.0019 µM.

`Cc1ccc(C(C)C)cc1OCCCCCCCCCOc1ccc2ccc(=O)oc2c1` [Compound 57, 7-((9-(5-Isopropyl-2-methylphenoxy)nonyl)oxy)-2H-chromen-2-one] registered an IC50 in experiment [1] greater than 200 µM.

In the case of `Cc1ccc(C(C)C)c(OCCCCCCOc2ccc3ccc(=O)oc3c2)c1` [Compound 47, 7-((6-(2-Isopropyl-5-methylphenoxy)hexyl)oxy)-2H-chromen-2-one], the IC50 was greater than 80 µM in experiment [1], greater than 80 µM in experiment [2], 29.1 ± 6.02 µM in experiment [3] and 18.4 ± 2.63 µM in experiment [4]. The compound further registered a Ki in experiment [5] of 0.117 µM.

Consider `Cc1ccc(C(C)C)cc1OCc1cn(CCCCOc2ccc3ccc(=O)oc3c2)nn1` [Compound 22, 7-(4-(4-((5-Isopropyl-2-methylphenoxy)methyl)-1H-1,2,3-triazol-1-yl)butoxy)-2H-chromen-2-one], for which the IC50 in experiment [1] was determined as 37.4 ± 12.1 µM.

On to `CC1CCC(C(C)C)C(OCc2cn(CCCCCCCCCOc3ccc4ccc(=O)oc4c3)nn2)C1` (centres unmarked) [Compound 41, 7-((9-(4-(((2-Isopropyl-5-methylcyclohexyl)oxy)methyl)-1H-1,2,3-triazol-1-yl)nonyl)oxy)-2H-chromen-2-one], for which inhibition in experiment [1] was half-maximal at 44.7 ± 15.1 µM (IC50). The compound further came in with a Ki in experiment [5] of 0.204 µM.

Regarding `Cc1ccc(C(C)C)c(OCc2cn(CCCCCCOc3ccc4ccc(=O)oc4c3)nn2)c1` [Compound 15, 7-((6-(4-((2-Isopropyl-5-methylphenoxy)methyl)-1H-1,2,3-triazol-1-yl)hexyl)oxy)-2H-chromen-2-one], the IC50 worked out at 30.1 ± 10.2 µM in experiment [1], 59.7 ± 12.3 µM in experiment [2], 48.4 ± 14.4 µM in experiment [3] and 143 ± 58.5 µM in experiment [4].

`Cc1ccc(C(C)C)c(OCCCCCCCOc2ccc3ccc(=O)oc3c2)c1` [Compound 48, 7-((7-(2-Isopropyl-5-methylphenoxy)heptyl)oxy)-2H-chromen-2-one] yielded an IC50 in experiment [1] greater than 200 µM. This compound also had a Ki in experiment [5] of 0.0368 µM.

Compound `CC1CCC(C(C)C)C(OCc2cn(CCCCCCOc3ccc4ccc(=O)oc4c3)nn2)C1` (centres unmarked) [Compound 39, 7-((6-(4-(((2-Isopropyl-5-methylcyclohexyl)oxy)methyl)-1H-1,2,3-triazol-1-yl)hexyl)oxy)-2H-chromen-2-one] displayed an IC50 in experiment [1] of 65.6 ± 24.2 µM.

As for `Cc1ccc(C(C)C)cc1OCCCOc1ccc2ccc(=O)oc2c1` [Compound 53, 7-(3-(5-Isopropyl-2-methylphenoxy)propoxy)-2H-chromen-2-one], the IC50 in experiment [1] is greater than 80 µM; in experiment [2], greater than 80 µM; in experiment [3], greater than 200 µM; in experiment [4], 30.8 ± 9.23 µM. For the same compound, the affinity in experiment [5] corresponds to a Ki of 0.303 µM.

For `C=CCc1ccc(OCCCCOc2ccc3ccc(=O)oc3c2)c(OC)c1` [Compound 62, 7-(4-(4-Allyl-2-methoxyphenoxy)butoxy)-2H-chromen-2-one], the IC50 was greater than 80 µM in experiment [1], 64.7 ± 20.1 µM in experiment [2], 45.5 ± 26.5 µM in experiment [3] and 11.3 ± 3.61 µM in experiment [4]. Also, the Ki in experiment [5] is 0.0313 µM.

For `Cc1ccc(C(C)C)c(OCc2cn(CCCCCCCCCOc3ccc4ccc(=O)oc4c3)nn2)c1` [Compound 17, 7-((9-(4-((2-Isopropyl-5-methylphenoxy)methyl)-1H-1,2,3-triazol-1-yl)nonyl)oxy)-2H-chromen-2-one], the IC50 in experiment [1] is 28.5 ± 8.9 µM; in experiment [2], greater than 200 µM; in experiment [3] it was 12.5 ± 4.4 µM; in experiment [4], greater than 200 µM. Also, the Ki in experiment [5] worked out at 0.213 µM.

With `Cc1ccc(C(C)C)cc1OCCCCCCOc1ccc2ccc(=O)oc2c1` [Compound 55, 7-((6-(5-Isopropyl-2-methylphenoxy)hexyl)oxy)-2H-chromen-2-one], the IC50 in experiment [1] is 63.29 ± 0.57 µM; in experiment [2], greater than 80 µM; in experiment [3], 48.3 ± 14.1 µM; in experiment [4] it was 16.4 ± 2.91 µM. In experiment [5], the Ki stood at 0.0362 µM.

In experiment [1], `CC1CCC(C(C)C)C(OCc2cn(CCCCCCCOc3ccc4ccc(=O)oc4c3)nn2)C1` (centres unmarked) [Compound 40, 7-((7-(4-(((2-Isopropyl-5-methylcyclohexyl)oxy)methyl)-1H-1,2,3-triazol-1-yl)heptyl)oxy)-2H-chromen-2-one] displayed an IC50 of 54.8 ± 19.1 µM.

In the case of `CC1CCC(C(C)C)C(OCCOc2ccc3ccc(=O)oc3c2)C1` (centres unmarked) [Compound 68, 7-(2-((2-Isopropyl-5-methylcyclohexyl)oxy)ethoxy)-2H-chromen-2-one], the IC50 in experiment [1] turned out to be 40.7 ± 7.5 µM.

Compound `Cc1ccc(C(C)C)c(OCCCCCCCCCCOc2ccc3ccc(=O)oc3c2)c1` [Compound 50, 7-((10-(2-Isopropyl-5-methylphenoxy)decyl)oxy)-2H-chromen-2-one] yielded an IC50 in experiment [1] greater than 200 µM.

Turning to `Cc1ccc(C(C)C)c(OCCCCOc2ccc3ccc(=O)oc3c2)c1` [Compound 46, 7-(4-(2-Isopropyl-5-methylphenoxy)butoxy)-2H-chromen-2-one], the IC50 in experiment [1] is greater than 80 µM; in experiment [2], greater than 80 µM; in experiment [3] it was greater than 80 µM; in experiment [4], greater than 200 µM. In experiment [5], this compound returned a Ki of 0.0824 µM.

On to `Cc1ccc(C(C)C)cc1OCc1cn(CCOc2ccc3ccc(=O)oc3c2)nn1` [Compound 20, 7-(2-(4-((5-Isopropyl-2-methylphenoxy)methyl)-1H-1,2,3-triazol-1-yl)ethoxy)-2H-chromen-2-one], for which the IC50 in experiment [1] was found to be 25.9 ± 7.94 µM.

On to `Cc1ccc(C(C)C)c(OCCCCCCCCCCCCOc2ccc3ccc(=O)oc3c2)c1` [Compound 51, 7-((12-(2-Isopropyl-5-methylphenoxy)dodecyl)oxy)-2H-chromen-2-one], for which the IC50 in experiment [1] was greater than 200 µM; in experiment [2] it was 50.1 ± 15.7 µM; in experiment [3] it was 62.8 ± 23.7 µM; in experiment [4], 19.6 ± 3.14 µM. The compound also showed a Ki in experiment [5] of 0.0383 µM.

In experiment [1], `Cc1ccc(C(C)C)c(OCc2cn(CCCOc3ccc4ccc(=O)oc4c3)nn2)c1` [Compound 13, 7-(3-(4-((2-Isopropyl-5-methylphenoxy)methyl)-1H-1,2,3-triazol-1-yl)propoxy)-2H-chromen-2-one] came in with an IC50 of 48.5 ± 8.73 µM.

In experiment [1], `Cc1ccc(C(C)C)c(OCCCCCCCCCOc2ccc3ccc(=O)oc3c2)c1` [Compound 49, 7-((9-(2-Isopropyl-5-methylphenoxy)nonyl)oxy)-2H-chromen-2-one] registered an IC50 greater than 200 µM. Affinity in experiment [5] was put at a Ki of 0.123 µM.

In experiment [1], `Cc1ccc(C(C)C)cc1OCc1cn(CCCOc2ccc3ccc(=O)oc3c2)nn1` [Compound 21, 7-(3-(4-((5-Isopropyl-2-methylphenoxy)methyl)-1H-1,2,3-triazol-1-yl)propoxy)-2H-chromen-2-one] showed an IC50 of 39.4 ± 15.8 µM.

For the compound `Cc1ccc(C(C)C)c(OCCCOc2ccc3ccc(=O)oc3c2)c1` [Compound 45, 7-(3-(2-Isopropyl-5-methylphenoxy)propoxy)-2H-chromen-2-one], the IC50 in experiment [1] was greater than 200 µM; in experiment [2], 43.3 ± 5.43 µM; in experiment [3], greater than 80 µM; in experiment [4], greater than 200 µM. The compound also had a Ki in experiment [5] of 0.192 µM.

With `C=CCc1ccc(OCCCCCCCCCCCCOc2ccc3ccc(=O)oc3c2)c(OC)c1` [Compound 67, 7-((12-(4-Allyl-2-methoxyphenoxy)dodecyl)oxy)-2H-chromen-2-one], the 50% inhibitory concentration (IC50) in experiment [1] was greater than 80 µM.

In the case of `Cc1ccc(C(C)C)c(OCc2cn(CCCCCCCOc3ccc4ccc(=O)oc4c3)nn2)c1` [Compound 16, 7-((7-(4-((2-Isopropyl-5-methylphenoxy)methyl)-1H-1,2,3-triazol-1-yl)heptyl)oxy)-2H-chromen-2-one], the IC50 came out at 21.6 ± 8.31 µM in experiment [1], 142 ± 49.6 µM in experiment [2], 167 ± 30.1 µM in experiment [3] and 73.1 ± 55.4 µM in experiment [4].

Regarding `CC1CCC(C(C)C)C(OCCCCCCOc2ccc3ccc(=O)oc3c2)C1` (centres unmarked) [Compound 71, 7-((6-((2-Isopropyl-5-methylcyclohexyl)oxy)hexyl)oxy)-2H-chromen-2-one], the IC50 in experiment [1] is 18.6 ± 3.39 µM; in experiment [2] it was 56.6 ± 10.5 µM; in experiment [3] it was 36 ± 9.49 µM; in experiment [4], 30.7 ± 7.04 µM.

Take `COc1cccc2c1C(=O)c1c(O)c3c(c(O)c1C2=O)C[C@@](O)(C(=O)CO)C[C@@H]3O[C@H]1C[C@H](N)[C@H](O)[C@H](C)O1` [Dox, doxorubicin, reference compound]: the IC50 in experiment [1] turned out to be 7.41 ± 1.9 µM; in experiment [2] it was 2.03 ± 0.12 µM; in experiment [3] it was 4.48 ± 1.08 µM; in experiment [4], 0.64 ± 0.11 µM.

As for `Cc1ccc(C(C)C)c(OCc2cn(CCOc3ccc4ccc(=O)oc4c3)nn2)c1` [Compound 12, 7-(2-(4-((2-Isopropyl-5-methylphenoxy)methyl)-1H-1,2,3-triazol-1-yl)ethoxy)-2H-chromen-2-one], the IC50 in experiment [1] was 48.5 ± 9.01 µM; in experiment [2] it was 107 ± 19.5 µM; in experiment [3], 50.2 ± 23.7 µM; in experiment [4], 45.7 ± 14.5 µM.

Regarding `C=CCc1ccc(OCc2cn(CCCCCCOc3ccc4ccc(=O)oc4c3)nn2)c(OC)c1` [Compound 31, 7-((6-(4-((4-Allyl-2-methoxyphenoxy)methyl)-1H-1,2,3-triazol-1-yl)hexyl)oxy)-2H-chromen-2-one], the IC50 in experiment [1] was 45.2 ± 13.1 µM; in experiment [2], 15.2 ± 1.06 µM; in experiment [3], greater than 200 µM; in experiment [4], 16.8 ± 9.71 µM.

By IC50 is commonly meant the point on the concentration scale where inhibition reaches its midpoint. A high value points to a need for much substance. Broadly, the Ki is a dissociation constant, usually derived from enzyme kinetics or from competition with a known ligand.

Source of the values: article PMC9933483, “Tail-Approach-Based Design and Synthesis of Coumarin-Monoterpenes as Carbonic Anhydrase Inhibitors and Anticancer Agents” (ACS Omega, 2023).
